From US6730693B2, “Double salts of fumaric acid with a carnitine and an amino acid and food supplements, dietary supplements and drugs containing same” (Sigma-Tau Industrie Farmaceutiche Riunite S.p.A., priority 2000, dated 2004)
Structures can show the parent of a compound that is named as a salt.

Legend:
[1] = Weight increase and appearance after exposure to relative humidity (hygroscopicity test); assay type: physicochemical; details: for 24 hours; for Weight increase %: exposure to a relative humidity of 60 ±5% at 25%; for Appearance: exposure to a relative humidity of 60 ±5%
[2] = Hygroscopicity of the isolated solid as observed on preparation; assay type: physicochemical; details: isolated solid after preparation
Experimental: The mixture was then filtered under vacuum and the solid thus obtained was dried in a thermostatic oven at 30° C. overnight.
The mixture was then filtered under vacuum and the solid thus obtained dried in a thermostatic oven at 30° C. overnight.
8 g (0.05 moles) of L-carnitine inner salt, 5.8 g (0.05 moles) of fumaric acid and 6.6 g of L-ornithine were dissolved in 7.5 mL of water at 60° C. and the resulting thick, clear mass was slowly poured into a solution of acetone (800 mL) under vigorous mechanical stirring.

| Molecule | Weight increase % [1] | Appearance [1] | Hygroscopicity of the solid obtained [2] |
| --- | --- | --- | --- |
| L-Carnitine and Creatine Fumarate [Ex. 1 (BS/231)] | 0.18% | no variation | non-hygroscopic |
| CC(C)CC(=O)O[C@H](CC(=O)[O-])C[N+](C)(C)C [Isovaleryl L-carnitine inner salt] | 20% | deliquescent | – |
| C[N+](C)(C)C[C@H](O)CC(=O)[O-].O=C(O)/C=C/C(=O)O [L-carnitine fumarate] | – | – | highly hygroscopic |
| isovaleryl L-carnitine and lysine fumarate | – | – | non-hygroscopic |
| L-carnitine and lysine fumarate | – | – | non-hygroscopic |
| C[N+](C)(C)C[C@H](O)CC(=O)[O-] [L-carnitine inner salt] | 19% | deliquescent | – |
| Isovaleryl L-Carnitine and Creatine Fumarate [Ex. 2 (BS/232)] | 0.19% | no variation | non-hygroscopic |
| CN(CC(=O)O)C(=N)N [Anhydrous creatine] | 3% | flowable | – |
